Test results as given in patent US20100041613A1, “NOVEL ANTIBIOTIC COMPOSITIONS” (priority 2006, published 2010).
≈ marks a conversion by molar mass, not a printed value.

Tests used:
[1] = system: methicillin resistant Staphylococcus aureus (MRSA) ATCC#33591; assay: microbe, parasite or virus in culture; type: cell-based
Experimental: (§1) Antibiotic compositions of the invention were tested for antimicrobial activity against methicillin resistant Staphylococcus aureus (MRSA) ATCC#33591 and vancomycin resistant Enterococcus faecalis (VRE) ATCC#51575. Pathogen cultures were grown in tryptic soya broth (TSB) with 5 g/L NaCl (TSB+) overnight (˜18 hrs) at 37° C. The cultures were removed from the incubator and refrigerated at least 3 hours to stop further culture growth. Determined aliquot ratios of culture to broth to obtain approximately 2.5×10^5 CFU/ml., for which accurate counts were measured by serial dilution onto Tryptic Soy Agar with 5 g/L NaCl (TSA+) plates. Two fold dilution series' of […] were prepared for MRSA and VRE, respectively. All components except thiazolyl blue tetrazolium bromide (MTT) were added to the wells prior to an initial overnight incubation at 37° C. MTT was added to each well, 29 μl or […], for MRSA or VRE plates, respectively, followed by 1 hour incubation at 37° C. Vancomycin and/or Zyvoxam were included as reference compounds with vancomycin prepared in the same way as the test compounds. Zyvoxam was supplied as a 2 mg/ml solution. Minimum inhibitory concentration (MIC) endpoints were read as the lowest concentration showing no visible growth.

[2] = system: vancomycin resistant Enterococcus faecalis (VRE) ATCC#51575; assay: organism not typed; type: cell-based
Experimental: as §1

[3] = MRSA, lowest concentration showing no visible growth, overnight incubation at 37° C.
[4] = VRE, lowest concentration showing no visible growth, overnight incubation at 37° C.

C=C1NC(=O)[C@H]([C@@H](C)CC)NC(=O)[C@H](NC(=O)C(=CC)NC(=O)[C@@H](N)[C@@H](C)CC)CSC[C@@H](C(=O)N[C@H]2C(=O)N3CCC[C@H]3C(=O)NCC(=O)N[C@H](C(=O)N[C@@H](CCCCN)C(=O)NCCCCCCNC(=O)[C@H]3NC(=O)[C@H]4NC(=O)[C@H](NC(=O)[C@@H]5NC(=O)[C@H](CC(N)=O)NC(=O)[C@H](NC(=O)[C@@H](CC(C)C)NC)[C@H](O)c6ccc(c(Cl)c6)Oc6cc5cc(c6O[C@@H]5O[C@H](CO)[C@@H](O)[C@H](O)[C@H]5O[C@H]5C[C@](C)(N)[C@H](O)[C@H](C)O5)Oc5ccc(cc5Cl)[C@H]4O)c4ccc(O)c(c4)-c4c(O)cc(O)cc43)CSC2C)NC(=O)[C@H](CC(C)C)NC1=O (stereo partly shown) [Example 2, nisin(1-12)-1,6-diaminohexane-vancomycin]
minimum inhibitory concentration against MRSA ([1]; methicillin resistant ATCC#33591, 18 h): 0.04 µg/mL (≈ 0.0149 µM) | minimum inhibitory concentration against VRE ([2]; vancomycin resistant (VRE) ATCC#51575, 18 h): 20 µg/mL (≈ 7.46 µM)

CC(=O)NC[C@H]1CN(c2ccc(N3CCOCC3)c(F)c2)C(=O)O1 [zyvoxam]
minimum inhibitory concentration against MRSA [1, 3]: 0.3 µg/mL (≈ 0.889 µM) | minimum inhibitory concentration against VRE [2, 4]: 1.2 µg/mL (≈ 3.56 µM)

CN[C@H](CC(C)C)C(=O)N[C@H]1C(=O)N[C@@H](CC(N)=O)C(=O)N[C@H]2C(=O)N[C@H]3C(=O)N[C@H](C(=O)N[C@H](C(=O)O)c4cc(O)cc(O)c4-c4cc3ccc4O)[C@H](O)c3ccc(c(Cl)c3)Oc3cc2cc(c3O[C@@H]2O[C@H](CO)[C@@H](O)[C@H](O)[C@H]2O[C@H]2C[C@](C)(N)[C@H](O)[C@H](C)O2)Oc2ccc(cc2Cl)[C@H]1O [vancomycin]
MIC ([1]; Staphylococcus aureus, read-out: minimum inhibitory concentration against MRSA): 1.2 µg/mL (≈ 0.828 µM) | MIC ([2]; read-out: minimum inhibitory concentration against VRE): 500 µg/mL (≈ 345 µM)

nisin
minimum inhibitory concentration against MRSA [1, 3]: 0.3 to 0.6 µg/mL | minimum inhibitory concentration against VRE [2, 4]: 5 to 10 µg/mL

Nisin[1-12] polypeptide fragment
highest concentration at which MRSA was not inhibited ([1]; MRSA, did not inhibit at as high as the stated concentration): > 10 µg/mL | highest concentration at which VRE was not inhibited ([2]; VRE, did not inhibit at as high as the stated concentration): > 40 µg/mL
